Measurements as given in ChEMBL document CHEMBL3046330, “Synthesis and biological activity of hydrazidehydrazones and their corresponding 3-acetyl-2,5-disubstituted-2,3-dihydro-1,3,4-oxadiazoles” (Med Chem Res, 2012).
Values after ≈ are worked out from the molar mass of the structure shown. Active and inactive are the calls of the source. The calls are words filed in the database; no cut-off is given here.

What was measured:
[1] = tested on: Colletotrichum gloeosporioides; test: Antifungal activity against Colletotrichum gloeosporioides assessed as growth inhibition at 30 uM after 72 hr by broth microdilution method; type: functional; conditions: read-out: GI
KB = test: Cytotoxicity against Homo sapiens (human) KB cells assessed as cell viability up to 25 ug/ml after 48 hr by neutral red assay; type: functional, cell-based
Vero = test: Cytotoxicity against Chlorocebus aethiops (African green monkey) Vero cells assessed as cell viability up to 25 ug/ml after 48 hr by neutral red assay; type: cell-based; conditions: chlorocebus sabaeus
[2] = Cytotoxicity against Sus scrofa (pig) LLC-PK11 cells assessed as cell viability up to 25 ug/ml after 48 hr by neutral red assay; type: cell-based; conditions: llc-pk11, 48 h
Pichia kudriavzevii = test: Antifungal activity against Pichia kudriavzevii NRRL Y-7179 after 24 hr by NCCLS broth microdilution method; type: functional; conditions: NRRL Y-7179, 24 h
SK-MEL = test: Cytotoxicity against Homo sapiens (human) SK-MEL cells assessed as cell viability up to 25 ug/ml after 48 hr by neutral red assay; type: functional, cell-based
Candida tropicalis [3] = test: Antifungal activity against Candida tropicalis NRRL Y-12968 at 2000 ug/ml by agar diffusion method; type: functional; conditions: read-out: IZ
Candida albicans [4] = test: Antifungal activity against Candida albicans clinical isolate after 24 hr by NCCLS broth microdilution method; type: functional
SW1353 = test: Inhibition of PMA-induced NFkappaB activity in Homo sapiens (human) SW1353 cells up to 25 ug/ml incubated for 30 min followed by PMA induction for 8 hr by luciferase reporter gene assay; type: cell-based
HL-60 [5] = test: Cytotoxicity against Homo sapiens (human) HL60 cells; type: cell-based
Candida tropicalis [6] = test: Antifungal activity against Candida tropicalis NRRL Y-12968 after 24 hr by NCCLS broth microdilution method; type: functional; conditions: NRRL Y-12968, 24 h
Candida albicans [7] = test: Antifungal activity against Candida albicans NRRL Y-12983 after 24 hr by NCCLS broth microdilution method; type: functional; conditions: NRRL Y-12983, 24 h
SK-OV-3 = test: Cytotoxicity against Homo sapiens (human) SKOV3 cells assessed as cell viability up to 25 ug/ml after 48 hr by neutral red assay; type: functional, cell-based
Cyberlindnera jadinii = test: Antifungal activity against Cyberlindnera jadinii NRRL Y-900 after 24 hr by NCCLS broth microdilution method; type: functional; conditions: Williopsis jadinii, NRRL Y-900, 24 h
Candida parapsilosis = test: Antifungal activity against Candida parapsilosis NRRL Y-12696 after 24 hr by NCCLS broth microdilution method; type: functional; conditions: Lodderomyces parapsilosis, NRRL Y-12696, 24 h
[8] = target: T1, Nitric oxide synthase, inducible (Mus musculus, UniProt P29477); test: Inhibition of iNOS in Mus musculus (mouse) RAW264.7 cells assessed as inhibition of LPS-induced nitrite production incubated for 30 min prior to LPS challenge measured after 24 hr by Griess assay; type: cell-based
T1 sequence (P29477 whole entry): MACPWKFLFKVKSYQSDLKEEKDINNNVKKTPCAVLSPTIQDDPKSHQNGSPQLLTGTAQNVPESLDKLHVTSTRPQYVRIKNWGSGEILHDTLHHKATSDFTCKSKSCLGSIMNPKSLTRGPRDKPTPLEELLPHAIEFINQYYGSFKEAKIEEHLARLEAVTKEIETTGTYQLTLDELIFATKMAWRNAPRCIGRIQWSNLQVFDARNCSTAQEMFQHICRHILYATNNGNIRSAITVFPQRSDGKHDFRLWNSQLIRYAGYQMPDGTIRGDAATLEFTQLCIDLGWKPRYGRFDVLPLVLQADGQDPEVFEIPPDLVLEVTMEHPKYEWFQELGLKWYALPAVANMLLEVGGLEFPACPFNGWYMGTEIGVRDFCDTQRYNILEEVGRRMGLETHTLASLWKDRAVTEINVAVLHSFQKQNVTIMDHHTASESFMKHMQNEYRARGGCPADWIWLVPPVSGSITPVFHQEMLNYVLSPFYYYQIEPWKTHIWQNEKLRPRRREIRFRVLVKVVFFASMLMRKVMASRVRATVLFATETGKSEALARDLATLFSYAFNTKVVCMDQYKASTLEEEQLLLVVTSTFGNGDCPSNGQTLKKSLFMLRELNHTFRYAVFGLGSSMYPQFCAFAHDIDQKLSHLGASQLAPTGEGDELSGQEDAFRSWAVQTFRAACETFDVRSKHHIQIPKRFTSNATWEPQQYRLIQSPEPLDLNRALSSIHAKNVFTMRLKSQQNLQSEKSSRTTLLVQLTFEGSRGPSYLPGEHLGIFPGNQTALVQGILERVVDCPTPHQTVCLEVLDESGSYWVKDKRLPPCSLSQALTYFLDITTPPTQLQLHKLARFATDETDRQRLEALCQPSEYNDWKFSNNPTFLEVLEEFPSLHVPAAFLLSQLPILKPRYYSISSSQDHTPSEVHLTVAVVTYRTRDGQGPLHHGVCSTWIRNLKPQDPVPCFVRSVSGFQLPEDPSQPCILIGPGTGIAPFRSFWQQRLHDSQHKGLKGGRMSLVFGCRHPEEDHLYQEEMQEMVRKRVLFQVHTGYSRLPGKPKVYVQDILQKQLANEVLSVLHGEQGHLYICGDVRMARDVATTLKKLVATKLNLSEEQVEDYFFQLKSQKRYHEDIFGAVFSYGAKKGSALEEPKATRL

Colletotrichum fragariae = test: Antifungal activity against Colletotrichum fragariae at 0.3 to 30 uM after 48 to 72 hr by broth microdilution method; type: functional, organism-based
RAW264.7 [9] = test: Cytotoxicity against Mus musculus (mouse) RAW264.7 cells up to 25 ug/ml; type: cell-based
Nakaseomyces glabratus = test: Antifungal activity against Candida glabrata clinical isolate after 24 hr by NCCLS broth microdilution method; type: functional
Botrytis cinerea = test: Antifungal activity against Botryotinia fuckeliana at 0.3 to 30 uM after 48 to 72 hr by broth microdilution method; type: functional, organism-based
BT-549 = test: Cytotoxicity against Homo sapiens (human) BT549 cells assessed as cell viability up to 25 ug/ml after 48 hr by neutral red assay; type: functional, cell-based
Candida albicans [10] = test: Antifungal activity against Candida albicans clinical isolate at 2000 ug/ml by agar diffusion method; type: functional; conditions: read-out: IZ
Candida albicans [11] = test: Antifungal activity against Candida albicans ATCC 90028 after 24 hr by NCCLS broth microdilution method; type: functional; conditions: ATCC 90028, 24 h
Fusarium oxysporum = test: Antifungal activity against Fusarium oxysporum assessed as growth inhibition at 30 uM after 72 hr by broth microdilution method; type: functional; conditions: read-out: GI
Diaporthe ampelina = test: Antifungal activity against Diaporthe ampelina assessed as growth inhibition at 30 uM after 144 hr by broth microdilution method; type: functional; conditions: read-out: GI
Transcription factor Sp1 = Transcription factor Sp1 (Homo sapiens, UniProt P08047); test: Inhibition of Sp1 (unknown origin) up to 25 ug/ml by luciferase reporter gene assay
Transcription factor Sp1, sequence (P08047 whole entry): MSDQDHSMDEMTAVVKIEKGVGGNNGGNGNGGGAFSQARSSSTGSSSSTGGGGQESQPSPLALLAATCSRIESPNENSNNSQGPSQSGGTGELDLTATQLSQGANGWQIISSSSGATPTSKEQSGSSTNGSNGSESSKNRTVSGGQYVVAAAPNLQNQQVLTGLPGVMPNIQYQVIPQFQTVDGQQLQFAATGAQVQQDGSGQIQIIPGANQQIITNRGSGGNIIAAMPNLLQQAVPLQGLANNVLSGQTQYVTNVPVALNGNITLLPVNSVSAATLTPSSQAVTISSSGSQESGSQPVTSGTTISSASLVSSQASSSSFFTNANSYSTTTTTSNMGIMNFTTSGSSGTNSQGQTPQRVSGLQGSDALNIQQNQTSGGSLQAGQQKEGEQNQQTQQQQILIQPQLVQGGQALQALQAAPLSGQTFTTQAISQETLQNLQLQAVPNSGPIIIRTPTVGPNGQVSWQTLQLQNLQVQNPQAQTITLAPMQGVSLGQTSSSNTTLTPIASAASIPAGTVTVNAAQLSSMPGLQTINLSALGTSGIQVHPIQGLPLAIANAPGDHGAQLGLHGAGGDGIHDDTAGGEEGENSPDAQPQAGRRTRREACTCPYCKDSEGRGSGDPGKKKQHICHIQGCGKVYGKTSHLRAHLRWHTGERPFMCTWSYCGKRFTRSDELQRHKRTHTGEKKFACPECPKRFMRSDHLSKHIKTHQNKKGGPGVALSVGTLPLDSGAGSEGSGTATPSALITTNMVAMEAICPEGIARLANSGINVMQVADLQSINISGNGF

HL-60 [12] = test: Antioxidant activity in PMA-stimulated Homo sapiens (human) HL60 cells assessed as inhibition of intracellular ROS generation up to 25 ug/ml incubated for 30 min prior to PMA stimulation measured after 30 min by DCFH-DA assay relative to vehicle-treated control; type: functional, cell-based
RAW264.7 [13] = test: Cytotoxicity against Mus musculus (mouse) RAW264.7 cells; type: cell-based
[14] = Inhibition of PMA-induced NFkappaB activity in Homo sapiens (human) SW1353 cells incubated for 30 min followed by PMA induction for 8 hr by luciferase reporter gene assay; type: cell-based
HL-60 [15] = test: Antioxidant activity in PMA-stimulated Homo sapiens (human) HL60 cells assessed as inhibition of intracellular ROS generation incubated for 30 min prior to PMA stimulation measured after 30 min by DCFH-DA assay; type: functional, cell-based
[16] = target: T2, Nitric oxide synthase, inducible (Mus musculus) (UniProt P29477); test: Inhibition of iNOS in Mus musculus (mouse) RAW264.7 cells assessed as inhibition of LPS-induced nitrite production up to 25 ug/ml incubated for 30 min prior to LPS challenge measured after 24 hr by Griess assay relative to vehicle-treated control; type: cell-based
T2 sequence (whole entry): T1 sequence (P29477 whole entry)

HL-60 [17] = test: Cytotoxicity against Homo sapiens (human) HL60 cells up to 25 ug/ml; type: cell-based

Structure (SMILES)	Activity (KB)	Activity (Vero)	Activity [2]	MIC (Pichia kudriavzevii) [µg/mL]	Activity (SK-MEL)	zone of inhibition at 2000 µg/mL (Candida tropicalis [3]) [mm]	MIC (Candida albicans [4]) [µg/mL]	inhibition (SW1353)	MIC (Candida tropicalis [6]) [µg/mL]	MIC (Candida albicans [7]) [µg/mL]	Activity (SK-OV-3)	MIC (Cyberlindnera jadinii) [µg/mL]	MIC (Candida parapsilosis) [µg/mL]	IC50 [8] [µM]	Activity (Colletotrichum fragariae)	Activity (RAW264.7 [9])	Activity (BT-549)	zone of inhibition at 2000 µg/mL (Candida albicans [10]) [mm]	MIC (Candida albicans [11]) [µg/mL]	inhibition (INH) (Transcription factor Sp1)	further results
O=C(N/N=C/c1ccc(Br)s1)c1ccc(F)cc1	inactive	Not Active	Not Active	250 (≈ 764 µM)	inactive	9	250 (≈ 764 µM)	inactive	250 (≈ 764 µM)	125 (≈ 382 µM)	inactive	250 (≈ 764 µM)	250 (≈ 764 µM)	> 76.4	inactive	Non-toxic	inactive	9	250 (≈ 764 µM)	Not Active	inhibition of growth at 30 µM [1]: 32%; IC50 (HL-60 [5]): 16 µg/mL (≈ 48.9 µM); MIC (Nakaseomyces glabratus): 250 µg/mL (≈ 764 µM); Activity (Botrytis cinerea): inactive; inhibition of growth at 30 µM (Fusarium oxysporum): 40%; inhibition of growth at 30 µM (Diaporthe ampelina): 91%; inhibition (HL-60 [12]): inactive
C=C1C(=O)O[C@@H]2C3O[C@]3(C)CC/C=C(\C)CC[C@@H]12 (stereo not given in full)	–	–	–	–	–	–	–	–	–	–	–	–	–	1.61	–	–	–	–	–	–	IC50 (RAW264.7 [13]): 13 µg/mL (≈ 52.4 µM); IC50 [14]: 0.68 µg/mL (≈ 2.74 µM)
COc1ccc(C2OC(c3ccc(F)cc3)=NN2C(C)=O)cc1O (stereo not given)	inactive	Not Active	Not Active	500 (≈ 1510 µM)	inactive	9	250 (≈ 757 µM)	–	500 (≈ 1510 µM)	500 (≈ 1510 µM)	inactive	250 (≈ 757 µM)	500 (≈ 1510 µM)	12.1	inactive	Non-toxic	inactive	9	500 (≈ 1510 µM)	Not Active	IC50 (HL-60 [15]): 0.9 µg/mL (≈ 2.72 µM); IC50 (HL-60 [5]): 20 µg/mL (≈ 60.5 µM); MIC (Nakaseomyces glabratus): 250 µg/mL (≈ 757 µM); Activity (Botrytis cinerea): inactive; IC50 [14]: 0.75 µg/mL (≈ 2.27 µM)
O=C(N/N=C/c1ccc(O)cc1)c1ccc(F)cc1	inactive	Not Active	Not Active	500 (≈ 1940 µM)	inactive	9	–	inactive	500 (≈ 1940 µM)	500 (≈ 1940 µM)	inactive	500 (≈ 1940 µM)	500 (≈ 1940 µM)	> 96.8	–	–	inactive	9	500 (≈ 1940 µM)	Not Active	IC50 (RAW264.7 [13]): > 25 µg/mL; inhibition [16]: inactive; Activity (HL-60 [17]): Non-toxic; inhibition (HL-60 [12]): inactive
O=C(N/N=C/c1ccc(Br)cc1)c1ccc(F)cc1	inactive	Not Active	Not Active	500 (≈ 1560 µM)	inactive	9	500 (≈ 1560 µM)	inactive	–	500 (≈ 1560 µM)	inactive	1000 (≈ 3110 µM)	1000 (≈ 3110 µM)	–	inactive	Non-toxic	inactive	9	500 (≈ 1560 µM)	Not Active	inhibition of growth at 30 µM [1]: 22%; MIC (Nakaseomyces glabratus): 250 µg/mL (≈ 778 µM); Activity (Botrytis cinerea): inactive; inhibition [16]: inactive; inhibition of growth at 30 µM (Fusarium oxysporum): 35%; Activity (HL-60 [17]): Non-toxic; inhibition (HL-60 [12]): inactive
